Assay results from patent US20190388377A1, “COMPOSITIONS AND METHODS FOR THE TREATMENT OF LIVER DISEASES AND DISORDERS” (AXCELLA HEALTH INC., priority 2018, published 2019).

Key:
Albumin = Albumin secretion after 72 h by ELISA, PHH model, Example 2; format: cell-based, human; conditions: FFA+TNFα
Description: PHH from two healthy human donors (Lonza, TRL) were seeded on day 0 at density of 6e04 cells in 96 well optical microplates (Thermofisher) in hepatocyte plating media (William's E medium, WEM) (Gibco) supplemented with 10% heat-inactivated FBS (Atlanta Bio), 2 mM Glutamax (Gibco), and 0.2% Primocin (InVivoGen) and incubated for 6 hours at 37° C., 5% CO2. After 6 hours, cells were washed twice and incubated overnight at 37° C., 5% CO2 with Hepatocytes defined medium (Corning) supplemented with 2 mM Glutamax (Gibco), and 1× Penicillin/Streptomycin. On day 1, cells were washed twice and incubated for 24 h in the hepatocyte culture media in the same conditions described above.
On day 2, cells were washed twice with DPBS 1× (Gibco) to remove excess amino acids and maintained in pretreatment media (1×HMDB, a defined custom amino acid concentration based on the mean physiological concentrations in blood, in WEM±supplemental amino acids): • a. Amino acid-free WEM (US Biologicals) supplemented with 11 mM Glucose (Sigma), 0.272 mM Sodium Pyruvate (Sigma), 1× P/S (Gibco) and containing 1×HMDB with no supplemental amino acids; or • b. The same media described above 1×HMDB WEM with supplemental amino acid and amino acid combination treatments at various concentrations. Cells were maintained in the defined media (a. & b.) for 24 hours at 37° C., 5% CO2. The HMDB values are published in the Human Metabolome Database (Wishart D S, Tzur D, Knox C, et al., HMDB: the Human Metabolome Database. Nucleic Acids Res. 2007 January; 35 (Database issue):D521-6. 17202168; which is hereby incorporated by reference in its entirety). Co-Treatment with Free Fatty Acids and Amino Acids Combination
After 24 h pre-treatment, cells maintained in the pretreatment media±supplemental amino acids (section (a. & b.) described above) were exposed to free fatty acids (FFA) at 250 uM with a ratio of 2:1 (Oleate:Palmitate) supplemented with TNF-α (Thermofisher) at 1 ng/ml. Cells were incubated with the FFAs mixture (FFAs+TNF-α)±supplemental amino acids treatments for 24 hours at 37° C., 5% CO2. After 24 hours incubation, media was removed for cytokine analysis and replaced by fresh media containing the same conditions described above (FFAs mixture±supplemental amino acids treatments). Cells were incubated for an additional 48 hours for a total of 72 hours of FFA and TNF-α stimulation. After 72 hours of incubation, media was removed for albumin and urea analysis and the cells were fixed for nuclei and lipid staining.
Albumin secretion was measured as a functionality test in primary human hepatocytes. Albumin was measured by ELISA (Human Albumin ELISA Quantitation set, Bethyl Laboratories) at 1/200 dilution in the sample diluent (Bethyl Laboratories). Data is reported as median fold change from control, statistical analysis was done using t-Test.

CCL18 = CCL18 secretion by ELISA, IL-4-treated primary human M2 macrophages, Example 5; format: cell-based; conditions: IL-4 1 ng/ml, 5 mM
Description: On day 0, primary human PBMC derived macrophages were seeded in Dulbecco's Modified Eagle Medium (DMEM) (Gibco) supplemented with penicillin-streptomycin (Hyclone) and 10% heat inactivated fetal bovine serum (HI-FBS) (Atlanta Bio) into 96-well microplates (ThermoFisher) and incubated overnight at 37° C., 5% CO2. On day 1, cells were washed once with DPBS and then treated with: • a. Amino acid free DMEM (US Biologicals) containing a defined custom amino acid concentration based on the mean physiological concentrations in blood based on values published in the Human Metabolome Database (HMDB), with 6 mM glucose, 1 mM sodium pyruvate, 10 mM HEPES, penicillin-streptomycin; or • b. The same medium described above with one amino acid or amino acid combination at various concentrations
On day 2, cells were treated with the same mediums described above supplemented with recombinant human interleukin-4 (1 ng/ml of IL-4; Peprotech). […]
On day 3, the supernatant was collected and immediately frozen in −80° C. freezer. Cells were washed once with DPBS and viability was assessed using the WST-8 Cell Proliferation Cytotoxicity Assay (Dojindo) according to manufacturer-supplied protocol. […] Protein levels in supernatant samples were analyzed by ELISA for CCL18 using commercially available kits (R&D Systems) according to manufacturer-supplied protocols.

M1 macrophages = assay: Seahorse XF real-time ATP rate assay in LPS-treated M1 macrophages, Example 6; format: cell-based, human
Description: Primary human PMBC derived macrophages were seeded on day 0 at 2.0E4 cells per well in a Seahorse […] Cell Culture Microplate V3-PS TC-Treated plate (Agilent) coated with 0.1 mg/mL Poly-D-Lysine (Trevigen) in Dulbecco's Modified Eagle Medium (DMEM) (Gibco) supplemented with penicillin-streptomycin (Gibco) and 10% heat inactivated fetal bovine serum (HI-FBS) (Atlanta Bio) and incubated overnight at 37° C., 5% CO2. On day 1, cells were washed once with 150 uL per well DPBS (Gibco) and treated with 100 uL of: • a. Amino acid free DMEM (US Biologicals) containing a defined custom amino acid concentration based on the mean physiological concentrations in blood based on values published in the Human Metabolome Database (HMDB), with 6 mM glucose, 1 mM sodium pyruvate, 10 mM HEPES (Sigma), and penicillin-streptomycin (Gibco); or • b. The same media described above with supplemental amino acid and amino acid combination treatments at various concentrations. […] Control wells were treated with 0.15 ng/mL LPS, or phosphate buffered saline (PBS). On day 3, the supernatant was collected and immediately frozen in a -80° C. freezer. Cells were analyzed for total ATP production rate, glycolytic ATP production rate, and mitochondrial ATP production rate using a commercially available kit (Agilent Seahorse XF Real-Time ATP Rate Assay Kit) according to manufacturer-supplied protocol on a Seahorse XFe instrument. A custom assay medium (amino acid free DMEM/F12 without phenol red or sodium bicarbonate (US Biologicals) containing a defined custom amino acid concentration based on the mean physiological concentrations in blood based on values published in the Human Metabolome Database (HMDB), with 10 mM XF glucose (Agilent), 1 mM XF pyruvate (Agilent), and 5 mM HEPES (Sigma) was used. Buffer factor for the custom assay medium was determined according to manufacturer-supplied protocol. Following the assay, cells were washed twice with PBS and fixed with 4% paraformaldehyde.

[1] = 30× LIRQNacSCar (7.5 mM Nac and Car) or 7.5 mM Nac vs LPS vehicle control

For `CC(=O)N[C@@H](CS)C(=O)O` [Nac, N-acetylcysteine], the “albumin secretion (in words)” value (Albumin; hepatocyte donor 1) was “slightly decreased albumin secretion”, the “albumin secretion (in words)” value (Albumin; hepatocyte donor 2) was “induce albumin secretion” and the “CCL18 Median Fold Change from Vehicle (log2)” value (CCL18) was 0.387 log2. The “glycolytic ATP production rate (in words)” value (M1 macrophages; [1]) was “significantly decreased glycolytic, mitochondrial, and total ATP rate measurements”, the “mitochondrial ATP production rate (in words)” value (M1 macrophages; [1]) was “significantly decreased glycolytic, mitochondrial, and total ATP rate measurements” and the “total ATP rate (in words)” value (M1 macrophages; [1]) was “significantly decreased glycolytic, mitochondrial, and total ATP rate measurements”. For the same compound, the “Glycolytic ATP Rate, Median Fold Change from Vehicle (Log2)” value (M1 macrophages; LPS 0.15 ng/mL, 7.5 mM) was −0.461 Log2, the “Mitochondrial ATP Rate, Median Fold Change from Vehicle (Log2)” value (M1 macrophages; LPS 0.15 ng/mL, 7.5 mM) was −0.196 Log2 and the “Total ATP Rate, Median Fold Change from Vehicle (Log2)” value (M1 macrophages; LPS 0.15 ng/mL, 7.5 mM) was −0.2744 Log2.
